Patent US20240398801A1, “TREATMENT OF LEUKEMIA BASED ON LEUKEMIA HIERARCHY IN A PATIENT” (UNIVERSITY HEALTH NETWORK, priority 2021, published 2024)

Assays:
primary AML samples [1] = test: Association of LinClass-7 / LSC17 score with ex vivo drug sensitivity in primary AML drug screens; assay type: cell-based, human
Experimental: Ex vivo drug response in BEAT-AML samples was measured through the Area Under the dose-response Curve (AUC) metric, wherein a low AUC corresponds to sensitivity while a high AUC corresponds to resistance. AUC values were scaled and multiplied by −1 to represent sensitivity in each treatment condition. Pearson correlation was used to measure association between cell type abundance and drug sensitivities, following recommendations from a benchmarking study by Smirnov et al^97. Associations were depicted using the R package “corrplot”, and drug sensitivity volcano plots were generated using the R package “EnhancedVolcano”. For associations of cell type abundance with clinical and biological features, absolute cell type abundance was always used and pearson correlations were calculated unless otherwise specified.
To derive the LinClass-7 score, logCPM-normalized expression of 16 genes from the LSC17 assay were used as input features for LASSO regression: DNMT3B, GPR56, NGFRAP1, CD34, DPYSL3, SOCS2, MMRN1, KIAA0125, EMP1, NYNRIN, LAPTM4B, CDK6, AKR1C3, ZBTB46, CPXM1, ARHGAP22. The 17th gene, C19orf77, was excluded due to lack of expression data in the Leucegene cohort. LASSO regression was performed on negative PC2 (high in Primitive and low in Mature) with leave-one-out cross validation using the LassoCV function from scikit-learn with a path length of 0.1. Patients from TCGA and Leucegene were combined into a training set, and patients from BEAT-AML were used as a validation set to evaluate the strength of the association between LinClass-7 and PC2.

human AML cells = test: Changes in cell type composition after drug treatment (deconvolution of RNA-seq from preclinical studies); assay type: cell-based
Description: To identify RNA-seq datasets collected from AML samples before and after drug treatment, Applying the search terms “Acute Myeloid Leukemia” and “AML” with the “Homo sapien” and “RNA-sequencing” flags on Gene Expression Omnibus (GEO) and ArrayExpress, we identified 95 datasets posted before Jun. 17, 2021. From these, 53 were inhibitors that met the inclusion criteria of human AML samples with available RNA-sequencing data collected before and after drug treatment. Datasets with only differential expression results or Bigwig files were excluded. Datasets with less than three samples in each treatment group were also excluded, resulting in a total of 47 datasets included in the final analysis. Each dataset was processed and underwent TPM normalization and deconvolution with CIBERSORTx using a signature matrix of seven malignant cell types (LSPC-Quiescent, LSPC-Primed, LSPC-Cycle, GMP-like, ProMono-like, Mono-like, cDC-like). For quality control among cell line samples, the deconvolution correlation values from each sample across every dataset were compared and the jenks natural breaks algorithm was employed to identify cutoffs demarcating low, medium, and high correlation bins. Cell line samples classified as “low-correlation” with a correlation value below 0.437 were excluded from further analysis, leaving 42 datasets spanning 153 treatment conditions.
Relative changes in cell type abundance in each treatment condition were evaluated using Wilcoxon rank-sum tests for technical replicates or Wilcoxon signed-rank tests for biological replicates with paired treatment conditions. For dimensionality reduction with UMAP, we focused exclusively on changes in cell type abundance where the p-value was <0.05 to emphasize the key changes in cell type composition induced by each drug, resulting in 125 treatment conditions spanning 38 studies. Absolute log p-values were used to represent the magnitude of shift in cell type abundance, and cell type changes where p>0.05 were assigned a magnitude of zero. […]

primary AML samples [2] = test: Selinexor in vivo treatment of primary AML samples, cell type abundance by RNA-seq deconvolution; set-up: species or system NSG mice; conditions: primary AML samples treated in vivo
Experimental: RNA was extracted from bulk peripheral blood mononuclear cells using an RNeasy Micro Kit (Qiagen). Libraries were constructed using SMART-Seq (Clonetec). A paired-end 50-base-pair flow-cell lane Illumina HiSeq 2000 yielded an average of 240 million aligned reads per sample. To align RNA-seq reads from samples used in selinexor and fedratinib treatments, Illumina paired-end sequence data were analyzed with BWA/v0.6 alignment software with option (-s) to disable Smith-Waterman alignment. Reads were mapped onto GRCh37-lite reference genome and exon-exon junction reference whose coordinates were defined based on transcript annotations in Ensembl/v59. Reads with mapping quality <10 were discarded and duplicate reads were tagged using the Picard's MarkDuplicates program. JAGuaR 2.1 was used to incorporate reads spanning multiple exons into the alignment by introducing large alignment gaps. All transcripts of a given gene were collapsed into a single gene model such that exonic bases were the union of exonic bases that belonged to all known transcripts of the gene. Read counts and subsequently RPKM counts were obtained by counting the fraction of each read that overlapped with an exonic region for that gene. To align RNA-seq reads from functionally annotated LSC fractions, sequence data was aligned against GRCh38 and transcript sequences downloaded from Ensembl build 90 using STAR 2.5.2a. […]

AML engraftment = test: Patient-derived xenograft (PDX) response of AML patient samples to fedratinib, CC-90009 or their combination; assay type: in vivo, NOD.SCID mice; conditions: for response rate: PDX
Experimental: Using normalized malignant cell type composition data for 46 patient samples used for in vivo fedratinib or CC-90009 treatment, dimensionality reduction was performed and clustering was assigned using the leiden algorithm with a resolution of 0.7, yielding three clusters: Primitive, Mature, Intermediate/GMP. […] Samples were subsequently projected on the reference map for visualization and confirmation of cluster assignments.
Patient samples were classified into response categories by comparing the relative reduction (RR) of AML engraftment in drug-treated mice versus vehicle-treated mice, as per Galkin et al 98. RR was calculated as: ((mean % engraftment in control mice)−(mean % engraftment in drug treated mice))/(mean % engraftment in control mice). Patient samples were classified as Responders if RR in the injected femur (Right Femur, RF) was >50%, classified as Partial Responders if we observed 20 to 50% RR in the RF or >20% in the non-injected femur (Bone Marrow, BM) only, and classified as Non-Responders if there was no statistically significant difference in engraftment levels between control- and drug-treated mice, or if RR was <20% in both RF and BM.
Samples with unknown NPM1 mutation status were subsequently assigned as NPM1 mutant or NPM1 wild-type according to their cluster membership.
NOD.SCID mice were bred and housed in the University Health Network (UHN) animal care facility and all animal experiments were performed in accordance with guidelines approved by the UHN animal care committee. Ten-week-old NOD.SCID mice were irradiated (225 cGy) and pretreated with anti-CD122 antibody (200 μg per mouse), 24 hours prior to transplantation. Viably frozen mononucleated cells from AML patients were thawed, counted, and intrafemorally injected at the dose of 5 million cells per mouse. At day 21 post transplantation, treatment of either CC-90009 or Fedratinib alone with vehicle, or in combination, was initiated twice a day for 2 weeks. CC-90009 was given by intraperitoneal (IP) injections at the dose of 2.5 mg/kg and Fedratinib was dissolved in 0.5% methylcellulose and orally gavaged at 60 mg/kg. Following treatment, levels of AML engraftment were assessed to determine the efficacy of drug treatment against the disease in the mice. Cells collected from the injected right femur, non-injected bone marrow of each individual mouse were stained with human specific antibodies and evaluated by flow cytometry. Antibodies used for assessment of human AML engraftment include: CD45-APC, CD33-PE-Cy5, CD19-V450, CD34-APC-Cy7, CD15-FITC (BD), CD33-PE-Cy5, and CD14-PE (Beckman Coulter).

AML = test: Subgroup analysis of the ALFA-0701 trial by LinClass-7 score; assay type: in vivo, human
[3] = AMLs with Intermediate/GMP hierarchies
[4] = AMLs with Primitive hierarchies
[5] = added to standard chemotherapy vs chemotherapy alone, LinClass-7 low (mature) AML

CC1(C)CCC(c2ccc(Cl)cc2)=C(CN2CCN(c3ccc(C(=O)NS(=O)(=O)c4ccc(N[C@H](CCN5CCOCC5)CSc5ccccc5)c(S(=O)(=O)C(F)(F)F)c4)cc3)CC2)C1 [Navitoclax]
difference in ex vivo sensitivity between patient samples with high and low score (primary AML samples [1]; split by LSC17): no significant difference
difference in ex vivo sensitivity between patient samples with high and low score (primary AML samples [1]; split by LinClass-7): stark differences

CC1=C(/C=C/C(C)=C/C=C/C(C)=C/C(=O)O)C(C)(C)CCC1 [ATRA]
blast population from which differentiation is induced (human AML cells): predominantly from GMP-like blasts

Cc1c(-c2ccc(-c3ccccc3F)cc2)nc2ccc(F)cc2c1C(=O)O [Brequinar]
Quiescent LSPC abundance after treatment (human AML cells; accompanying induced differentiation): reduction

O=C(/C=C\n1cnc(-c2cc(C(F)(F)F)cc(C(F)(F)F)c2)n1)NNc1cnccn1 [Selinexor]
Cycling LSPC population after treatment (human AML cells; primary AML samples treated in vitro): depletion
Cycling LSPC population after treatment (primary AML samples [2]): depletion

Cc1cnc(Nc2ccc(OCCN3CCCC3)cc2)nc1Nc1cccc(S(=O)(=O)NC(C)(C)C)c1 [fedratinib]
response rate (AML engraftment; [3]): 20%
response rate (AML engraftment; AMLs with Mature hierarchies): 88%
response rate (AML engraftment; [4]): 46%

O=C1CCC(N2Cc3cc(CNC(=O)C(F)(F)c4ccc(Cl)cc4)ccc3C2=O)C(=O)N1 (stereo not drawn) [CC-90009]
response rate (AML engraftment; [3]): 83%
response rate (AML engraftment; AMLs with Mature hierarchies): 88%
response rate (AML engraftment; [4]): 40%
response among Primitive AMLs (AML engraftment; Primitive AMLs lacking NPM1c mutation and ETC signatures): favorable response
response among Primitive AMLs (AML engraftment; Primitive AMLs with NPM1c mutations and electron transport chain signatures): poor response

FC(F)(F)c1ccc(/C=C/c2nc(COc3ccc(CCCCn4ccnn4)cc3)co2)cc1 [Mubritinib]
blasts targeted, from correlation of LinClass-7 score with drug sensitivity (primary AML samples [1]; drug screens of Tyner et al and Lee et al): primitive blasts
difference in ex vivo sensitivity between patient samples with high and low score (primary AML samples [1]; split by LSC17): no significant difference
difference in ex vivo sensitivity between patient samples with high and low score (primary AML samples [1]; split by LinClass-7): stark differences

Gemtuzumab Ozogamicin [GO]
event-free survival (AML; [5]): significantly longer
relapse-free survival (AML; [5]): significantly longer
survival benefit (AML; added to standard chemotherapy, LinClass-7 high primitive AML): no significant survival benefit
overall survival (AML; added to standard chemotherapy, LinClass-7 low (mature) AML): did not extend
